These results are taken from patent publication US8663620B2, “Murgantiol as a stink bug synergistic attractant for use outdoors” (Sterling International Inc., priority 2011, dated 2014).

“Also recorded” adds a separate entry of the source. Read-outs that look alike come from different tables or passages of the source.

One test deals with Harlequin bugs. Particulars: insect-produced and synthetic murgantiol; laboratory; cited from earlier work.
The test system of test [1] is brown marmorated stink bug (BMSB). Kind of test: Field trapping Experiment 2 (Example 2): attractant formulations with and without racemic murgantiol in Rescue! Stink Bug Traps. In kind it is in vivo, Halyomorpha halys. Conditions: outdoors, September; FIG. 3. As to the method:
Two field trapping experiments were carried out from early to late September in home gardens/yards in Pittsburgh, Pa. In order to test the potential activity of the Harlequin bug pheromone, murgantiol, as a BMSB outdoor attractant or outdoor synergistic attractant to other known stink bug attractants, commercially available Rescue!® Stink Bug Traps (described in U.S. Pat. No. D645,534; U.S. Pat. No. D645,535; and U.S. patent application Ser. No. 13/331,394, filed Dec. 20, 2011) were used. Traps baited with different tested compounds or combinations were set up in lines, 1-1.5 m above the ground on either tree branches or fences ca. 3-5 m apart between each trap within a set, and at least 50 m between sets. For each trapping experiment, five sets of traps (i.e., five physical replicates of each treatment) were deployed with their initial trap positions within each set being randomized. To minimize positional effects and obtain more replications, stink bug collections and trap re-randomizations were carried out when ≧20 stink bugs were caught in the best traps. Each replicate lasted one to several days depending on stink bug activity. Captured stink bugs were removed from the traps and kept in plastic (polyethylene) zip-bags before returning to the laboratory for recording of the species, gender, and development status (nymphs, adult males/females), and catch. […]

For test [2], the system named is Euschistus spp. Description: Outdoor trapping with Rescue! Stink Bug Traps, synergistic attraction. The test is classed as in vivo. Conditions: outdoors.
Test [3] deals with brown marmorated stink bug (BMSB). Description: Field trapping Experiment 1 (Example 1): doses of racemic murgantiol vs standard attractants in Rescue! Stink Bug Traps. In kind it is in vivo, Halyomorpha halys. Particulars: for attraction of BMSB adults (mean numbers captured in baited traps): Pittsburgh, Pa., 14 days in early September, vs blank control, Duncan's test α=0.05; for attraction of BMSB adults (mean numbers captured in baited traps) / dose-response of trap catches: FIG. 2; for dose-response of trap catches: racemic murgantiol 10, 20, 40, 80 mg. As to the method:
Two field trapping experiments were carried out from early to late September in home gardens/yards in Pittsburgh, Pa. In order to test the potential activity of the Harlequin bug pheromone, murgantiol, as a BMSB outdoor attractant or outdoor synergistic attractant to other known stink bug attractants, commercially available Rescue!® Stink Bug Traps (described in U.S. Pat. No. D645,534; U.S. Pat. No. D645,535; and U.S. patent application Ser. No. 13/331,394, filed Dec. 20, 2011) were used. Traps baited with different tested compounds or combinations were set up in lines, 1-1.5 m above the ground on either tree branches or fences ca. 3-5 m apart between each trap within a set, and at least 50 m between sets. For each trapping experiment, five sets of traps (i.e., five physical replicates of each treatment) were deployed with their initial trap positions within each set being randomized. To minimize positional effects and obtain more replications, stink bug collections and trap re-randomizations were carried out when ≧20 stink bugs were caught in the best traps. Each replicate lasted one to several days depending on stink bug activity. Captured stink bugs were removed from the traps and kept in plastic (polyethylene) zip-bags before returning to the laboratory for recording of the species, gender, and development status (nymphs, adult males/females), and catch. Murgantiol and the known stink bug attractants were released from dispensers [for example, 4 mil polyethylene bags (2.3×5.5 cm) or dispensers described in U.S. patent application Ser. No. 13/206,244, filed Aug. 9, 2011, incorporated herein by reference in its entirety]. Experiment 1 (Example 1) tested different doses of racemic murgantiol (MGT) in comparison with the known standard stink bug attractants [M246DT/M24DD], and the blank control. Trap catch data were converted to proportion (P) of total captured bugs within each replicate. The data were then transformed by arcsin (P)^1/2 to meet the assumptions of normality and homogeneity of variances for ANOVA (analysis of variance). Means were compared by ANOVA followed by the Duncan's multiple range test at α=0.05.

In a further test the test system is BMSB adults. Conditions: both sexes of adults, overwintering and transition periods; cited from earlier work.
The test system of test [4] is Euschistus spp. Particulars: seven Euschistus spp.; Aldrich et al. 1991; cited from earlier work.
A further test deals with A. hilare. Conditions: Aldrich et al. 2007; Khrimian 2005; cited from earlier work.
In a further test the test system is BMSB. Conditions: cited from earlier work.

With `CC(CCC1OC1(C)C)C1C=CC(C)(O)CC1` (racemic) [murgantiol, 4-[3-(3,3-dimethyloxiran-2-yl)-1-methylpropyl]-1-methylcyclohex-2-en-1-ol], in the test on Harlequin bugs, the “attraction of Harlequin bugs” value is “attracted sexually mature Harlequin bugs of both sexes”. The “effect of adding murgantiol to M246DT/M24DD attractants on BMSB trap catches (synergism)” value in test [1] is “synergistically attract; also recorded: significant increases in attraction; also recorded: strong synergistic effects”. Also, the “synergistic attraction together with known stink bug attractants such as M246DT and M24DD” value in the test with Euschistus spp. [2] was “synergistically attract”. For the same compound, the “attraction of BMSB adults (mean numbers captured in baited traps)” value in test [3] (outdoors) is on record as “active as an outdoor attractant; also recorded: comparable, if not more effective in attracting insects; also recorded: outdoor attractant for BMSBs in any dose amount”; in test [3] (outdoors, listed as MGT-A), “strong attraction to BMSBs at levels similar or even higher than the known standard stink bug attractants”; in test [3] (outdoors, listed as MGT-B), “strong attraction to BMSBs at levels similar or even higher than the known standard stink bug attractants”; in test [3] (outdoors, listed as MGT-C), “strong attraction to BMSBs at levels similar or even higher than the known standard stink bug attractants”; in test [3] (outdoors, listed as MGT-D), “strong attraction to BMSBs at levels similar or even higher than the known standard stink bug attractants”. In addition, the “sexes and stages attracted and captured” value in test [3] (outdoors, September, nymphs only 5% of total catches) is “Both sexes of adults (ca. 1:1) and nymphs were attracted and captured”. In addition, the “dose-response of trap catches” value in test [3] is “no significant dose-response effects”; in test [3] (listed as MGT-A), “as effective as the highest dose”. The “indoor attraction of BMSB” value in the test on BMSB adults is recorded as “indoor attractant”.
With `CCCCC/C=C\C=C\C(=O)OC` [M24DD, methyl (2E,4Z)-decadienoate], the “field attraction of Euschistus spp.” value in the test on Euschistus spp. [4] is “aggregation pheromone compound or field attractant”.
For `CCC\C=C/C=C/C=C/C(=O)OC` [M246DT, methyl (2E,4E,6Z)-decatrienoate], in the test with A. hilare, the “field attraction of A. hilare” value is reported as “field attractant”. In the test on BMSB (adults (males and females) and nymphs, Aldrich et al. 2007, Khrimian 2005), the “field attraction of BMSB” value was “field attractant for both adults (males and females) and nymphs”. The “attraction of BMSB” value in the test with BMSB (late spring and early summer, dispersal (overwintered) adults) is “only weakly active”; in the test with BMSB (mid-summer and early fall), “strongly attractive to both nymphs and adults”.
